# Literature values in publication PMC5857253 (Bioorganic chemistry, 2018).
# Molecular target: β-galactosidase (A. oryzae) (Aspergillus oryzae, UniProt Q2UCU3)
# Details: methods described by Bartlett et al.
# Chain of β-galactosidase (A. oryzae) (Q2UCU3 19-1005): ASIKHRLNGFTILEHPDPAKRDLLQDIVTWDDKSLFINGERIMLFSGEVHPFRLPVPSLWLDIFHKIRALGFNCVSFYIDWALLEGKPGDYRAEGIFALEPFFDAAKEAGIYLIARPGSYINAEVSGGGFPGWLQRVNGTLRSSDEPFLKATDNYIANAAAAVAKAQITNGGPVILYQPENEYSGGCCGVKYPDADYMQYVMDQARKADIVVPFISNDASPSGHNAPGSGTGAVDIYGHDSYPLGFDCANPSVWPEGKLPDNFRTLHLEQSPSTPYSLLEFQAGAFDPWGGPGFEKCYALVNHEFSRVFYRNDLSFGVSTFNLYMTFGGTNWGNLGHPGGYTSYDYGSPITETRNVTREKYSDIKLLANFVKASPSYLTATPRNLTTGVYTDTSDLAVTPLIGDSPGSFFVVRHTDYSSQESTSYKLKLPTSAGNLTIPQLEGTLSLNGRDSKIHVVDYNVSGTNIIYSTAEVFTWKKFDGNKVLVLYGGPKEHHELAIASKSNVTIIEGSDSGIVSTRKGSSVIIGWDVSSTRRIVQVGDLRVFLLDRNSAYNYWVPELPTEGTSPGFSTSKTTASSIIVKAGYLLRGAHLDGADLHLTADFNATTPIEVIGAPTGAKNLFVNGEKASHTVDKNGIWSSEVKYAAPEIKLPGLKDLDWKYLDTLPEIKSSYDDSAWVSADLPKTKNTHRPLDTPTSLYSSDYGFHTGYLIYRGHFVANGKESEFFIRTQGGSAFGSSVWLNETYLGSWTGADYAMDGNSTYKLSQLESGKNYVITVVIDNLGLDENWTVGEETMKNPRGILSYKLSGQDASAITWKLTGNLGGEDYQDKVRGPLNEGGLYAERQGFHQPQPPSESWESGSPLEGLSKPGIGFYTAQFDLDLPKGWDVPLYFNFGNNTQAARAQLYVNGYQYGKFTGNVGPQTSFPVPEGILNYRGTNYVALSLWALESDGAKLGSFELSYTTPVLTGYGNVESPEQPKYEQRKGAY
smiles,measurement,value
"Cc1ccc(C/N=C2\N[C@H](CO)[C@H](O)[C@H](O)[C@H]2O)cc1 [1a, p-methylbenzyl galactonoamidine]",classification as putative transition state analog (TSA),characterized as a putative transition state analog
